Assay results from US20090305225A1, “Inhibition of Creatine Uptake to Promote Weight Loss” (priority 2005, published 2009).

How the values were obtained:
[1] = type: physicochemical
Experimental: All animal handling was approved by and done in accordance with the guidelines and requirements of the University of Vermont Institutional Animal Care Use Committee. Adult male Sprague-Dawley rats (mycoplasma free; 200 g) were purchased from Charles River (Quebec, Canada) and housed in an air-conditioned (23+1 degree C.) room with lights on for 12 hours daily (starting at 6:00 a.m.) in the University of Vermont Animal Facility. Rats were housed singly in regular cages with free access to Purina Rat Chow (RMH 3000) and water for at least five days prior to surgery. Stereotactic surgery was used to implant chronic indwelling stainless steel cannulae into the third ventricle of the brain under fentanyl/droperidol anesthesia. Coordinates for cannula placement were obtained from the Konig Klippel stereotactic surgery atlas; with the nose bar 2.4 mm below the intraaural line and the vertical micrometer gantry tilted 9 degrees towards the animal, the coordinates were 4.9 mm dorsal to the intraaural line, 5 mm anterior to the intraaural line and 1.1 mm lateral to the midline. A minimum of 5 days later, animals were injected icv with beta-GPA (which was dissolved in saline at 50 degrees C. and the pH adjusted to 7.2-7.4 with dilute HCl) or other experimental compounds at the indicated concentrations. […] Food intakes were measured using powdered rat chow with daily weigh-backs as indicated. […]

[2] = Body weight and food intake after icv administration of beta-GPA in rats; type: in vivo, rat
Experimental: All animal handling was approved by and done in accordance with the guidelines and requirements of the University of Vermont Institutional Animal Care Use Committee. Adult male Sprague-Dawley rats (mycoplasma free; 200 g) were purchased from Charles River (Quebec, Canada) and housed in an air-conditioned (23+1 degree C.) room with lights on for 12 hours daily (starting at 6:00 a.m.) in the University of Vermont Animal Facility. Rats were housed singly in regular cages with free access to Purina Rat Chow (RMH 3000) and water for at least five days prior to surgery. Stereotactic surgery was used to implant chronic indwelling stainless steel cannulae into the third ventricle of the brain under fentanyl/droperidol anesthesia. Coordinates for cannula placement were obtained from the Konig Klippel stereotactic surgery atlas; with the nose bar 2.4 mm below the intraaural line and the vertical micrometer gantry tilted 9 degrees towards the animal, the coordinates were 4.9 mm dorsal to the intraaural line, 5 mm anterior to the intraaural line and 1.1 mm lateral to the midline. A minimum of 5 days later, animals were injected icv with beta-GPA (which was dissolved in saline at 50 degrees C. and the pH adjusted to 7.2-7.4 with dilute HCl) or other experimental compounds at the indicated concentrations. Control animals received equal volumes of vehicle. Volumes of icv injections never exceeded 10 ul per animal and were administered over 5-10 seconds. In some experiments, animals received two or more icv injections on the same or different days. Measures of body weight were made daily with a digital balance with a 6 second integration period to minimize the effects of animal movement. For experiments involving measurement of food intake, after stereotactic surgery animals were housed in individual Nalgene metabolic cages and given additional time for acclimation to the cage and feeding system. Food intakes were measured using powdered rat chow with daily weigh-backs as indicated.

Fos (c-fos protein) = assay: Fos immunohistochemistry of hypothalamic sections 4 hours after icv injection; type: in vivo, rat; details: 4 hours after icv 2 mg per rat, especially around the III ventricles
Experimental: In experiments involving immunohistochemistry, animals were injected icv with beta-GPA or with vehicle. Four hours after injection, animals were anesthetized with halothane and perfused through the left ventricle of the heart, initially with oxygenated Krebs buffer and then with ˜350 ml of 4% paraformaldehyde in 0.1M NaCl, pH 7.4 phosphate buffered saline (PBS). Brains were extracted from the skull, hypothalamic blocks dissected (by coronal cuts anterior and posterior to hypothalamic landmarks) and post-fixed in 4% paraformaldehyde solution at 4 degrees C. overnight. The following day, the blocks were transferred to 30% sucrose and incubated overnight at 4 degrees C. After freezing in Optimum Cutting Temperature (OCT) compound (Sakura, Japan), blocks were sectioned coronally at 40 um on a cryostat and sections individually floated in multi-well dishes filled with PBS. Sections were treated for 30 minutes with 0.4% Triton detergent in potassium PBS to aid in antibody penetration. Primary antibodies were added, the plates shaken gently for 1 hour at room temperature, then incubated at 4 degrees C. for 72 hours. Sections were then brought to room temperature while shaking and the primary antibody solution was removed by washing 3 times with PBS buffer. After removal of the last wash, the secondary antibody solution was added and the plates incubated for 2 hours at room temperature in the dark. Removal of the second antibody was achieved by washing three times with PBS buffer prior to mounting on subbed slides. They were allowed to dry, rewetted with PBS buffer and cover-slipped with Citifluor (Ted Pella, Reading, Calif.).
Fos studies were performed using indirect fluorescence visualization. The method utilized rabbit c-Fos-AB5 (1:2,000; Oncogene Research Products, Cambridge, Mass.) with goat anti-rabbit Cy3 (1:500; Jackson Immuno Research Laboratories, West Grove, Pa.) as the secondary antibody. […] Staining observed in experimental tissue was compared to that observed from experiment-matched negative controls. […] Immunoreactive Fos (Fos IR) was quantified by capturing images at 10× using MagnaFire 2.0 Software. These images were imported into the Metamorph 6.1 Software package and density of staining measured using Hue Saturation Intensity. Regions outlining nuclei were hand drawn with an electric pen and the total areas and stained areas measured to yield percentages of total areas with specific Fos-IR. The values for left and right dorsomedial nuclei in each rat were averaged, and the averages used to calculate means. In the case of the III ventricle, the entire image was used for quantification prior to calculating the percentage of the area with Fos-IR.

[3] = system: creatine transporter (CrT) mRNA; assay: Real-Time PCR of creatine transporter mRNA in hypothalami of beta-GPA-treated rats; type: in vivo, rat; details: hypothalamus, normalized to L32 mRNA, not statistically significant, FIG. 4
Experimental: RNA was purified with […] (Promega) at 37 degrees C. for 30 min. The first strand of cDNA was synthesized by adding 1 ug of purified RNA from each sample to 20 ul containing MMLV reverse transcriptase (Invitrogen Life Tech). Creatine transporter (CrT) gene expression was further quantatified by Real-Time PCR using sense primer: 5′GGTAAGGGTGCAA GCCTTTG′ (SEQ ID NO: 1); antisense primer: 5′[…]-3′ (SEQ ID NO:2) and TaqMan probe: 5′[…]-3′ (SEQ ID NO: 3) (MMG-Biotech). The rat ribosomal protein L32 gene was used as a loading control. 1 ul of each cDNA sample derived from the 20 ul reverse transcription reaction and 1 ug RNA template was mixed with 24 ul master mixture (Perkin Elmer) in a 96-well TaqMan plate. The PCR was run in an ABI prism 7700 thermocycler (Applied Biosystems) at 50 degrees C. for 2 min and 95 degrees C. for 10 min, followed by 95 degrees C. for 15 sec and 60 degrees C. for 1 min for 40 cycles. The data were analyzed using software supplied with the ABI prism 7700.

[4] = icv 1 mg, 2 mg or 3 mg per animal, FIG. 2
[5] = icv 2 mg/rat, single dose, FIG. 1

With `N=C(N)NCCC(=O)O` [beta-GPA, 3-guanidopropionic acid] the “usability of a five-fold greater icv dose (10 mg)” value [1] was “not usable because of solubility dictates”, the body weight [2, 4] was “decreased in a dose-dependent fashion” and the food intake [2, 4] was “decreased in a dose-dependent fashion”. For the same compound, the “time until body weight and food intake returned to values indistinguishable from vehicle-treated animals” value ([2]; icv 2 mg/rat, single dose) was “four”, the body weight [2, 5] was “modest decreases” and the food intake [2, 5] was “modest decreases”. For the same compound, the “effect of icv dose (body weight and food intake)” value ([2]; icv, 0.04 mg, five-fold lower dose, dose-ranging study) was “without effect”, the “magnitude of body weight and food intake effects after a second identical dosage” value ([2]; second icv dose seven days after the first, FIG. 2) was “enhanced considerably” and the “Fos IR” value (Fos (c-fos protein)) was “increased”. For the same compound, the “relative units of CrT gene expression versus vehicle-treated animals” value [3] was “slight decrease”.
